Patent publication US8648092B2, “Imidazo[1,2-a]pyridine derivatives: preparation and pharmaceutical applications” (MEI Pharma, priority 2005, dated 2014)

Legend:
[1] = system: Colo205 cells; test: Cell-based proliferation assay for determination of GI50 values (CyQUANT); parameters: species or system human; settings: Homo sapiens
Method: Cell-Based Proliferation Assay for Determination of GI50 Values
Human cancer cell lines (e.g. Colo205) were obtained from ATCC. Colo205 cells were cultivated in RPMI 1640 containing 2 mM L-Glutamine, 5% FBS, 1.0 mM Na Pyruvate. Colo205 cells were seeded in 96-wells plate at 5000 cells per well. The plates were incubated at 37° C., 5% CO2, for 24 h. Cells were treated with compounds at various concentrations for 96 h. Cell growth was then monitored using CyQUANT® cell proliferation assay (Invitrogen Pte Ltd). Dose response curves were plotted to determine GI50 values for the compounds using XL-fit (ID Business Solution, Emeryville, Calif.). GI50 is defined as the concentration of compound required for 50% inhibition of cell growth.
The cellular or growth inhibition activity results of representative compounds are shown in Table 4 below (unit in the table is micromolar).

[2] = target: HDAC1 enzyme (recombinant GST-HDAC1) (Homo sapiens (Human), UniProt Q13547); test: In vitro HDAC assay for determination of IC50 values (BIOMOL fluorescent-based HDAC activity assay); assay type: biochemical; settings: Flur de lys substrate, 2 h room temperature, read-out: IC50 (HDAC 1)
Method: Biological Testing and Enzyme Assays Recombinant GST-HDAC1 Protein Expression and Purification
Human cDNA library was prepared using cultured SW620 cells. Amplification of human HDAC1 coding region from this cDNA library was cloned separately into the baculovirus expression pDEST20 vector (GATEWAY Cloning Technology, Invitrogen Pte Ltd). The pDEST20-HDAC1 construct was confirmed by DNA sequencing. Recombinant baculovirus was prepared using the Bac-To-Bac method following the manufacturer's instruction (Invitrogen Pte Ltd).
Expression of GST-HDAC1 was done by infecting SF9 cells (Invitrogen Pte Ltd) with pDEST20-HDAC1 baculovirus at MOI=1 for 48 h. Soluble cell lysate was incubated with pre-equilibrated Glutathione Sepharose 4B beads (Amersham) at 4° C. for 2 h. The beads were washed with PBS buffer for 3 times. The GST-HDAC1 protein was eluted by elution buffer containing 50 mM Tris, pH8.0, 150 mM NaCl, 1% Triton X-100 and 10 mM or 20 mM reduced Glutathione. The purified GST-HDAC1 protein was dialyzed with HDAC storage buffer containing 10 mM Tris, pH7.5, 100 mM NaCl and 3 mM MgCl2. 20% Glycerol was added to purified GST-HDAC1 protein before storage at −80° C.
In Vitro HDAC Assay for Determination of IC50 Values
The assay has been carried out in 96 well format and the BIOMOL fluorescent-based HDAC activity assay has been applied. […] Flur de lys Developer was added and the reaction was incubated for 10 min. Briefly, deacetylation of the substrate sensitizes it to the developer, which then generates a fluorophore. The fluorophore is excited with 360 nm light and the emitted light (460 nm) is detected on a fluorometric plate reader (Tecan Ultra Microplate detection system, Tecan Group Ltd.).
The analytical software, Prism 4.0 (GraphPad Software Inc) has been used to generate IC50 from a series of data.

Chain of HDAC1 enzyme (recombinant GST-HDAC1) (Q13547 whole entry): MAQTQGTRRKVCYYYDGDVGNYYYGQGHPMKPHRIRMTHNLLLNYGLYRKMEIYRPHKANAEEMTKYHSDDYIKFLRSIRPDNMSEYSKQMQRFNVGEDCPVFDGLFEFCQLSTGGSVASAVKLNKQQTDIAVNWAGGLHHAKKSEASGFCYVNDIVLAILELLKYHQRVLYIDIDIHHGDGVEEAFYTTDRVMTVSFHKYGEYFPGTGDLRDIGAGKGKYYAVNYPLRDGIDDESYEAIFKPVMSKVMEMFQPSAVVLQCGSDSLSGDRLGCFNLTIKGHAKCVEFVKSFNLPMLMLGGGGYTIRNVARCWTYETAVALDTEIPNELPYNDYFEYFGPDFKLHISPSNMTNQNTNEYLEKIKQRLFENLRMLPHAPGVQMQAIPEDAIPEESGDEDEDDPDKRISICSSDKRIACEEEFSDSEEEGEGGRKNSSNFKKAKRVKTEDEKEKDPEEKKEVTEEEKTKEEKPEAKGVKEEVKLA

Row | Structure (SMILES) | GI50 ([1]; COLO 205, 96 h treatment) | IC50 [2] | GI50 ([1]; COLO 205, 96 h, 96 h treatment)
1 | CCN(CCN(C)C)Cc1c(-c2ccccc2)nc2cc(/C=C/C(=O)NO)ccn12 [Compound 44, 3-(3-{[(2-Dimethylamino-ethyl)-ethyl-amino]-methyl}-2-phenyl-imidazo[1,2-a]pyridin-7-yl)-N-hydroxy-acrylamide] | 32 µM | 2.9 µM | 
2 | CCCCCCc1nc2cc(/C=C/C(=O)NO)ccn2c1NCCC(=O)NCCN(C)C [Compound 20, 3-{3-[2-(2-Dimethylamino-ethylcarbamoyl)-ethylamino]-2-hexyl-imidazo[1,2-a]pyridin-7-yl}-N-hydroxy-acrylamide] | 28 µM | 0.099 µM | 
3 | CCN(Cc1c(C(C)(C)C)nc2cc(/C=C/C(=O)NO)ccn12)CC(C)C [Compound 86, 3-{2-tert-Butyl-3-[(ethyl-isobutyl-amino)-methyl]-imidazo[1,2-a]pyridin-7-yl}-N-hydroxy-acrylamide] | 3.9 µM | 0.57 µM | 
4 | CCCC(C)CN(CC)Cc1c(C(C)(C)C)nc2cc(/C=C/C(=O)NO)ccn12 (stereo not shown) [Compound 91, 3-(2-tert-Butyl-3-{[ethyl-(2-methyl-pentyl)-amino]-methyl}-imidazo[1,2-a]pyridin-7-yl)-N-hydroxy-acrylamide] | 2.1 µM | 0.47 µM | 
5 | CCCCCc1nc2ccc(/C=C/C(=O)NO)cn2c1NCCOC [Compound 9, N-Hydroxy-3-[3-(2-methoxy-ethylamino)-2-pentyl-imidazo[1,2-a]pyridin-6-yl]-acrylamide] | 5.3 µM | 1.3 µM | 
6 | CCCN(Cc1c(-c2ccccc2)nc2cc(/C=C/C(=O)NO)ccn12)CC1CC1 [Compound 53, 3-{3-[(Cyclopropylmethyl-propyl-amino)-methyl]-2-phenyl-imidazo[1,2a]pyridin-7-yl}-N-hydroxy-acrylamide] | 2.9 µM | 0.6 µM | 
7 | COCCNc1c(C(C)C)nc2ccc(/C=C/C(=O)NO)cn12 [Compound 7, N-Hydroxy-3-[2-isopropyl-3-(2-methoxy-ethylamino)-imidazo[1,2-a]pyridin-6-yl]-acrylamide] | 9.3 µM | 2.7 µM | 
8 | O=C(C=Cc1ccn2c(CN3CCC(Cc4ccccc4)CC3)c(-c3ccccc3)nc2c1)NO [Compound 58, 3-[3-(4-Benzyl-piperidin-1-ylmethyl)-2-phenyl-imidazo[1,2-a]pyridin-7-yl]-N-hydroxy-acrylamide] | 2.9 µM | 1.5 µM | 
9 | CC(C)(C)Nc1c(C(=O)O)nc2ccc(/C=C/C(=O)NO)cn12 [Compound 12, 3-tert-Butylamino-6-(2-hydroxycarbamoyl-vinyl)-imidazo[1,2-a]pyridine-2-carboxylic acid] | 20 µM |  | 
10 | CCCN(Cc1c(-c2ccccc2)nc2cc(/C=C/C(=O)NO)ccn12)C(C)CC (stereo not shown) [Compound 54, 3-{3-[(sec-Butyl-propyl-amino)-methyl]-2-phenyl-imidazo[1,2-a]pyridin-7-yl}-N-hydroxy-acrylamide] | 4.7 µM | 1 µM | 
11 | CCCCNCc1c(-c2ccccc2)nc2ccc(/C=C/C(=O)NO)cn12 [Compound 66, 3-(3-Butylaminomethyl-2-phenyl-imidazo[1,2-a]pyridin-6-yl)-N-hydroxy-acrylamide] | 55 µM | > 10 µM | 
12 | CCCN(C)Cc1c(C(C)(C)C)nc2cc(/C=C/C(=O)NO)ccn12 [Compound 50, 3-{2-tert-Butyl-3-[(methyl-propyl-amino)-methyl]-imidazo[1,2-a]pyridin-7-yl}-N-hydroxy-acrylamide] | 2.4 µM | 0.52 µM | 
13 | COCCNc1c(CC(C)(C)C)nc2ccc(/C=C/C(=O)NO)cn12 [Compound 8, 3-[2-(2,2-Dimethyl-propyl)-3-(2-methoxy-ethylamino)-imidazo[1,2-a]pyridin-6-yl]-N-hydroxy-acrylamide] | 14 µM | 1 µM | 
14 | CCC(C)CN(CC)Cc1c(C(C)(C)C)nc2cc(/C=C/C(=O)NO)ccn12 (stereo not shown) [Compound 88, 3-(2-tert-Butyl-3-{[ethyl-(2-methyl-butyl)-amino]-methyl}-imidazo[1,2-a]pyridin-7-yl)-N-hydroxy-acrylamide] | 2.2 µM |  | 
15 | CCCCc1nc2cc(/C=C/C(=O)NO)ccn2c1CN(CC)CC(C)CCC (stereo not shown) [Compound 113, 3-(2-Butyl-3-{[ethyl-(2-methyl-pentyl)-amino]-methyl}-imidazo[1,2-a]pyridin-7-yl)-N-hydroxy-acrylamide] |  |  | 0.37 µM
16 | CCCCCCCN(CC)Cc1c(C(C)(C)C)nc2cc(/C=C/C(=O)NO)ccn12 [Compound 94, 3-{2-tert-Butyl-3-[(ethyl-heptyl-amino)-methyl]-imidazo[1,2-a]pyridin-7-yl}-N-hydroxy-acrylamide] |  |  | 2.7 µM
17 | CCC(CC)NCc1c(C(C)(C)C)nc2cc(C=CC(=O)NO)ccn12 [Compound 68, 3-{2-tert-Butyl-3-[(1-ethyl-propylamino)-methyl]-imidazo[1,2-a]pyridin-7-yl}-N-hydroxy-acrylamide] |  |  | 1.5 µM
18 | COCCNc1c(CCC(=O)O)nc2ccc(/C=C/C(=O)NO)cn12 [Compound 10, 3-[6-(2-Hydroxycarbamoyl-vinyl)-3-(2-methoxy-ethylamino)-imidazo[1,2-a]pyridin-2-yl]-propionic acid] | 39 µM |  | 
19 | CCCCCCc1nc2cc(/C=C/C(=O)NO)ccn2c1NCCC(=O)N(C)CC#N [Compound 31, 3-{3-[2-(Cyanomethyl-methyl-carbamoyl)-ethylamino]-2-hexyl-imidazo[1,2-a]pyridin-7-yl}-N-hydroxy-acrylamide] | 1.9 µM |  | 

Next, values leading:

Row | GI50 ([1]; COLO 205, 96 h treatment) | IC50 [2] | GI50 ([1]; COLO 205, 96 h, 96 h treatment) | Structure (SMILES)
20 | 1.9 µM | 0.79 µM |  | O=C(/C=C/c1ccc2nc(CCc3ccccc3)c(Nc3ccc(N4CCCCC4)cc3)n2c1)NO [Compound 3, N-Hydroxy-3-[2-phenethyl-3-(4-piperidin-1-yl-phenylamino)-imidazo[1,2-a]pyridin-6-yl]-acrylamide]
21 | 0.15 µM | 0.03 µM |  | CCCCCc1nc2cc(/C=C/C(=O)NO)ccn2c1CN(CC)CCC(C)(C)C [Compound 131, 3-(3-{[(3,3-Dimethyl-butyl)-ethyl-amino]-methyl}-2-pentyl-imidazo[1,2a]pyridin-7-yl)-N-hydroxy-acrylamide]
22 | 1.2 µM | 0.24 µM |  | CCCN(CC)Cc1c(-c2ccccc2)nc2cc(/C=C/C(=O)NO)ccn12 [Compound 52, 3-{3-[(Ethyl-propyl-amino)-methyl]-2-phenyl-imidazo[1,2-a]pyridin-7-yl}-N-hydroxy-acrylamide]
23 | 0.17 µM |  |  | CCN(CCC(C)(C)C)Cc1c(CC(C)C)nc2cc(/C=C/C(=O)NO)ccn12 [Compound 136, 3-(3-{[(3,3-Dimethyl-butyl)-ethyl-amino]-methyl}-2-isobutyl-imidazo[1,2-a]pyridin-7-yl)-N-hydroxy-acrylamide]
24 | 0.9 µM | 0.35 µM |  | CC(C)CCN(C)Cc1c(C(C)(C)C)nc2cc(/C=C/C(=O)NO)ccn12 [Compound 108, 3-(2-tert-Butyl-3-{[methyl-(3-methyl-butyl)-amino]-methyl}-imidazo[1,2-a]pyridin-7-yl)-N-hydroxy-acrylamide]
25 | 0.47 µM | 0.06 µM |  | CCNCc1c(C(C)(C)C)nc2cc(/C=C/C(=O)NO)ccn12 [Compound 84, 3-(2-tert-Butyl-3-ethylaminomethyl-imidazo[1,2-a]pyridin-7-yl)-N-hydroxy-acrylamide]
26 | 0.15 µM |  |  | CCN(CCC(C)C)Cc1c(CC(C)C)nc2cc(/C=C/C(=O)NO)ccn12 [Compound 135, 3-(3-{[Ethyl-(3-methyl-butyl)-amino]-methyl}-2-isobutyl-imidazo[1,2-a]pyridin-7-yl)-N-hydroxy-acrylamide]
27 | 0.11 µM |  |  | CCN(CCC(C)C)Cc1c(C)nc2cc(/C=C/C(=O)NO)ccn12 [Compound 124, 3-(3-{[Ethyl-(3-methyl-butyl)-amino]-methyl}-2-methyl-imidazo[1,2a]pyridin-7-yl)-N-hydroxy-acrylamide]
28 | 0.8 µM |  |  | CCCCN(CCCC)Cc1c(C)nc2cc(/C=C/C(=O)NO)ccn12 [Compound 81, 3-(3-Dibutylaminomethyl-2-methyl-imidazo[1,2-a]pyridin-7-yl)-N-hydroxy-acrylamide]
29 | 0.13 µM |  |  | CCN(CCC(C)C)Cc1c(CCC(C)C)nc2cc(/C=C/C(=O)NO)ccn12 [Compound 142, 3-[3-{[Ethyl-(3-methyl-butyl)-amino]-methyl}-2-(3-methyl-butyl)-imidazo[1,2-a]pyridin-7-yl]-N-hydroxy-acrylamide]
